{
  "source": "paper PMC9027532",
  "about": "“Preclinical Pharmacokinetic Studies of a Novel Diuretic Inhibiting Urea Transporters” (Molecules, 2022)",
  "assay": "in vitro",
  "type": "in vitro ADME",
  "conditions": "plasma",
  "experimental": "The plasma protein binding (PPB) and blood plasma ratio (BPR) are crucial parameters influencing the drug distribution and elimination in plasma. The PPB profile of 25a was evaluated by equilibrium dialysis, a classic method to assess the interactions of small molecules with proteins. The PPB of 25a was tested at 50, 500, and 2500 ng/mL (Table 7). […] When considering the allometric scaling of PK parameters, the species difference of protein binding between humans and rats should be considered.\nThe plasma protein binding (PPB) ratio of 25a was assessed via equilibrium dialysis in SD rats and human plasma. Four hundred microliters of plasma containing 50, 500, or 2500 ng/mL 25a were loaded into the dialysis bags (plasma side), and the bags were placed into tubes containing 4 mL of the dialysis buffer (buffer side). The tubes were then rotated at approximately 100 rpm in a humidified incubator with 5% CO2 at 37 ± 1 °C for 5 h.\nAfter the 5 h dialysis, aliquots of 50 μL samples were taken from both the buffer and the plasma sides. An equal volume of the opposite blank matrix (buffer or plasma) was added to each sample to reach a final volume of 100 μL with a volume ratio of plasma to dialysis buffer at 1:1 (v/v). […] The PPB ratio (%) was calculated by PPB% = 100% × (1 − Conc.buffer side/Conc.plasma side).",
  "data": [
    {"smiles": "CC(=O)CC(c1ccccc1)c1c(O)c2ccccc2oc1=O", "note": "(stereo not shown) [warfarin]", "values": [
      {"measurement": "fraction unbound at 5 h", "result": 0.015}
    ]}
  ]
}
